Columns and labels:
Type in all cases: cell-based, human
cell line AFCA007 (AF-I) = assay: Cytotoxicity by MTS cell viability assay; conditions: up to 10 μM for 5 days
Procedure: (§1) Cells were treated for three days, at the concentrations indicated. Changes in viability, corresponding to cytotoxicity were detected using an MTS assay, where a decrease in cell viability corresponds to a decrease in A490 nm.
(§2) Cells from the cell line AFCA007 (AF-I) at passage 8 were treated with a range of concentrations of the notch pathway inhibitor L-685,458 (Sigma, MO) for 3 to 5 days. The cytotoxcity of L-685,458 was determined by measuring cell viability by a MTS assay (Promega, WI). Real-time PCR analysis was performed to analyze Hes-1 expression after the treatment. […] No effect on cell viability, as determined by the MTS assay, was observed following L-685,458 treatment of up to 10 μM for 5 days (FIG. 17, panel b).

[1] = system: Hes-1 expression (Notch pathway) in cell line AFCA007 (AF-I); assay: Hes-1 expression by real-time PCR after notch pathway inhibition; conditions: range of concentrations, 3 to 5 days
Procedure: as §1, §2

[2] = system: cell line AFCA007 Clone A (AF-I); assay: Differentiation of cells into multiple endocrine lineages (collagen type I/matrigel transwell culture with growth factors); conditions: 14 days, DMEM + 5% FBS
Procedure: Cells from the cell line AFCA007 Clone A (AF-I) at passage 8 were embedded in collagen type I (Becton Dickinson, CA) with 1% growth-factor reduced matrigel matrix (Becton Dickinson), and seeded into 6-well transwell insert at 5×10^5 cells per well. The bottom well was seeded with human aortic endothelial cells passage 6 (Cambrex. MD). Cells were cultured with DMEM medium supplemented with 5% FBS and growth factors, which includes Cyclopamine, bFGF, EGF, BMP4-7, Activin A, Exendin 4, FGF4, all-trans retinoic acid and γ-secretase inhibitors for 14 days. Cultures were fed every other day. […] Treatment of cells with BMPs at high concentration, 50 ng/ml, also up-regualted the GATA4 expression.

[3] = system: cell line AFCA004 (E morphology); assay: Treatment with PANC-1 conditioned medium in combination with growth factors, real-time PCR; conditions: PANC-1 conditioned medium plus growth factor; for somatostatin expression: after 14 days treatment
Procedure: Amniotic fluid-derived cells were obtained from a single donor and cultured for 12 days in conditioned media that was obtained from cultures of PANC-1 cells. The media was supplemented with the growth factors indicated. The levels of expression of HNF-3 beta and somatostatin were determined by real-time PCR. Human pancreas total RNA was included as a calibrator.
Cells from the cell line AFCA004 (E morphology) at passage 6 were seeded at 5×10^5 cells per well of 6-well culture plates and treated with conditioned medium from confluent PANC-1 cells (ATCC, VA) in combination with different growth factors. Basic FGF, EGF and combination of bFGF and EGF enhanced the expression of HNF-3 beta ˜100 fold over untreated cells. Basic FGF, EGF and BMPs also stimulated somatostatin expression after 14 days treatment (FIG. 16, panels a&b).

Row | Compound | expression of HNF-3 beta over untreated cells [3] | somatostatin expression [3] | further results
1 | CC(C)C[C@H](NC(=O)[C@H](Cc1ccccc1)C[C@@H](O)[C@H](Cc1ccccc1)NC(=O)OC(C)(C)C)C(=O)N[C@@H](Cc1ccccc1)C(N)=O [L-685,458] | – | – | cell viability (MTS assay) (cell line AFCA007 (AF-I)): No effect; Hes-1 expression [1]: dose-dependent inhibitory effect; expression of HNF-3 beta [2]: up-regulated
2 | CC1=C(/C=C/C(C)=C/C=C/C(C)=C/C(=O)O)C(C)(C)CCC1 [all-trans retinoic acid, reference compound] | – | – | alpha-fetoprotein (AFP) expression [2]: up-regulation
3 | Basic FGF: growth factor combined with PANC-1 conditioned medium | ~100 fold | stimulated | –
4 | EGF: epidermal growth factor combined with PANC-1 conditioned medium (NSDSECPLSHDGYCLHDGVCMYIEALDKYACNCVVGYIGERCQYRDLKWWELR; Epidermal growth factor; UniProt P01133 971-1023, looked up) | ~100 fold | stimulated | –

Source: patent US20070122903A1, “AMNIOTIC FLUID DERIVED CELLS” (priority 2005, published 2007)
